Laboratory results: PubChem BioAssay (NCI)
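Dose response: 5 concentrations. Exposure: 48 h. Format: 96-well plates. Endpoint: linear interpolation; highest concentration if not reached. The concentration for 50% growth inhibition is given as GI50. TGI marks complete inhibition of growth.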

Key:
Test in all cases: NCI tumour cell line growth inhibition, 48 h
[1] = tested on: IGROV1 ovarian
[2] = tested on: SF-268 CNS
[3] = tested on: OVCAR-8 ovarian
[4] = tested on: SW-620 colon
[5] = tested on: SF-295 CNS
[6] = tested on: U251 CNS
[7] = tested on: HOP-62 NSCLC
[8] = tested on: NCI-H522 lung
[9] = tested on: CCRF-CEM leukemia
[10] = tested on: NCI/ADR-RES ovarian

`NCCCOCC(=O)O` was tested, and the TGI [1] was > 100 µM, the TGI [2] was > 100 µM and the TGI [3] was > 100 µM. The TGI [4] was > 100 µM, the TGI [5] was > 100 µM and the TGI [6] was > 100 µM.

For `COc1ccccc1/C=C1\CCC(CCN(C)C)(C2=CCCC2)C1=O` (centres undefined), the TGI [1] was 28.6 µM, the TGI [7] was 34.5 µM and the TGI [8] was 27.1 µM. It also gave a TGI [2] of 40.1 µM, a TGI [9] of 51.6 µM and a TGI [3] of 34.7 µM. It also gave a TGI [4] of 32.1 µM, a TGI [5] of 31.7 µM and a TGI [6] of 31.1 µM.

`CCO/C=C/C(C)C1(C(=O)OCC)CCCCC1=O` (centres undefined) was tested, and the TGI [1] was > 100 µM, the TGI [7] was > 100 µM and the TGI [8] was > 100 µM. The TGI [2] was > 100 µM, the TGI [9] was > 100 µM and the TGI [3] was > 100 µM. For the same compound, the TGI [5] was > 100 µM and the TGI [6] was > 100 µM.

`CC(=O)N[C@@H]1C(O)CN2C(=O)C(=O)O[C@H](C(O)CO)[C@@H]12` (some centres undefined) was tested, and the TGI [1] was > 100 µM, the TGI [7] was > 100 µM and the TGI [8] was > 100 µM. The TGI [2] was > 100 µM, the TGI [9] was > 100 µM and the TGI [3] was > 100 µM. The TGI [4] was > 100 µM, the TGI [5] was > 100 µM and the TGI [6] was > 100 µM.

For `O=Cc1ccccc1OCCOc1cc(OCCOc2ccccc2C=O)c(OCCOc2ccccc2C=O)cc1OCCOc1ccccc1C=O`, the TGI [1] was > 100 µM, the TGI [7] was > 100 µM and the TGI [8] was > 100 µM. The TGI [2] was > 100 µM, the TGI [9] was > 100 µM and the TGI [3] was > 100 µM. The TGI [4] was > 100 µM and the TGI [6] was > 50.1 µM.

Compound `O=C(Nc1ccc(Cl)cc1Cl)C(=O)C(C(=O)c1ccc2ccccc2c1)C1OC(=O)c2ccccc21` (centres undefined) has a TGI [1] of 57.7 µM, a TGI [7] of 27.8 µM and a TGI [3] of 34.6 µM. The TGI [4] was 24.9 µM, the TGI [5] was 19.7 µM and the TGI [6] was 16.2 µM.

`O=C(O)[C@@H]1[C@H](C(=O)O)[C@H](C(=O)O)C[C@@H]1C(=O)O` was tested, and the TGI [1] was > 100 µM, the TGI [7] was > 100 µM and the TGI [8] was > 100 µM. For the same compound, the TGI [2] was > 100 µM, the TGI [3] was > 100 µM and the TGI [4] was > 100 µM. For the same compound, the TGI [5] was > 100 µM, the TGI [6] was > 100 µM and the TGI [10] was > 100 µM.

`OCCCOC(c1ccccc1)(c1ccccc1)c1ccccc1` was tested, and the TGI [1] was > 100 µM, the TGI [7] was > 100 µM and the TGI [8] was > 100 µM. The TGI [2] was > 100 µM, the TGI [9] was > 100 µM and the TGI [3] was > 100 µM. The TGI [4] was > 100 µM, the TGI [5] was > 100 µM and the TGI [6] was > 100 µM.

In the case of `CC1CC2CC(=O)CC3(C1)C2CCCN3CCCO` (centres undefined), the TGI [1] was > 100 µM, the TGI [7] was > 100 µM and the TGI [8] was > 100 µM. The TGI [2] was > 100 µM, the TGI [9] was > 100 µM and the TGI [3] was > 100 µM. The TGI [4] was > 100 µM, the TGI [5] was > 100 µM and the TGI [6] was > 100 µM.

In the case of `COC(=O)C1C(O)CC(c2ccccn2)N(Cc2ccccc2)C1c1ccccn1` (centres undefined), the TGI [1] was > 100 µM, the TGI [7] was > 100 µM and the TGI [8] was > 100 µM. The TGI [2] was > 100 µM, the TGI [9] was > 100 µM and the TGI [3] was > 100 µM. The TGI [4] was > 100 µM, the TGI [5] was > 100 µM and the TGI [6] was > 100 µM.

With `CC(=O)Nc1ccc(C(=O)NN2C(=O)C(Cl)C2c2ccc([N+](=O)[O-])cc2)cc1` (centres undefined) the TGI [1] was > 100 µM, the TGI [7] was > 100 µM and the TGI [8] was > 100 µM. The TGI [2] was > 100 µM, the TGI [9] was > 100 µM and the TGI [3] was > 100 µM. For the same compound, the TGI [4] was > 100 µM, the TGI [5] was > 100 µM and the TGI [6] was > 100 µM.

For `CC12N=NN(c3ccc([N+](=O)[O-])cc3)C1(O)c1ccccc1C2=O` (centres undefined), the TGI [1] was > 100 µM, the TGI [7] was > 100 µM and the TGI [8] was > 100 µM. The TGI [2] was > 100 µM, the TGI [3] was > 100 µM and the TGI [4] was > 100 µM. For the same compound, the TGI [5] was > 100 µM and the TGI [6] was > 100 µM.

With `O=C(c1ccc(Cl)cc1)c1ccc(OCCCCCCCCCCOc2ccc(C(=O)c3ccc(Cl)cc3)cc2)cc1` the TGI [1] was > 100 µM, the TGI [7] was > 100 µM and the TGI [8] was > 100 µM. For the same compound, the TGI [2] was > 100 µM, the TGI [9] was > 100 µM and the TGI [3] was > 100 µM. For the same compound, the TGI [4] was > 100 µM, the TGI [5] was > 100 µM and the TGI [6] was > 100 µM.

With `Cn1nc(-c2ccccc2)c(C(=O)/C=C/c2ccc(F)cc2)c(N2CCCCC2)c1=O` the TGI [1] was 38.2 µM, the TGI [8] was 28.7 µM and the TGI [2] was 37 µM. It also gave a TGI [9] of 6.46 µM, a TGI [3] of 75.6 µM and a TGI [4] of 45.3 µM. It also gave a TGI [6] of 27.7 µM.

`COc1ccc2c(c1)C(=O)c1c-2n(CCCN=[N+]=[N-])c(=O)c2cc(N(C)C)ccc12` was tested, and the GI50 [1] was > 100 µM, the TGI [1] was > 100 µM and the GI50 [7] was 10.3 µM. For the same compound, the TGI [7] was > 100 µM, the GI50 [8] was 11.2 µM and the TGI [8] was 92.4 µM. For the same compound, the GI50 [2] was 22.3 µM, the TGI [2] was > 100 µM and the GI50 [3] was 84.6 µM. The TGI [3] was > 100 µM, the GI50 [4] was > 100 µM and the TGI [4] was > 100 µM. The GI50 [5] was > 100 µM, the TGI [5] was > 100 µM and the GI50 [6] was 19.5 µM. For the same compound, the TGI [6] was > 100 µM, the GI50 [10] was > 100 µM and the TGI [10] was > 100 µM.

Compound `OC1c2ccccc2C2(O)C1C(c1ccccc1)C(c1ccccc1)C2(O)c1ccccc1` (centres undefined) has a TGI [1] of 82.9 µM, a TGI [7] of 28.2 µM and a TGI [8] of 31.7 µM. The TGI [2] was 68.8 µM, the TGI [9] was > 100 µM and the TGI [3] was 43.5 µM. The TGI [4] was 52 µM, the TGI [5] was 25.5 µM and the TGI [6] was 23.1 µM.

For `COc1cc(/C=C\c2ccccc2)cc(OC)c1OC`, the TGI [1] was > 100 µM, the TGI [7] was 23.5 µM and the TGI [8] was 7.26 µM. It also gave a TGI [2] of 59.2 µM, a TGI [9] of 49.8 µM and a TGI [3] of 46.7 µM. The TGI [4] was > 100 µM, the TGI [5] was 7.21 µM and the TGI [6] was 29.4 µM.

For `O=C(/C=C/c1ccccc1)CC1OC(=O)c2ccccc21` (centres undefined), the TGI [1] was > 100 µM, the TGI [7] was > 100 µM and the TGI [8] was > 100 µM. The TGI [2] was > 100 µM, the TGI [9] was > 100 µM and the TGI [3] was > 100 µM. For the same compound, the TGI [4] was > 100 µM, the TGI [5] was > 100 µM and the TGI [6] was > 100 µM.

`O=C([CH-]C(=O)c1ccccc1)c1ccccc1.O=C([CH-]C(=O)c1ccccc1)c1ccccc1.O=C([CH-]C(=O)c1ccccc1)c1ccccc1.[Nd+3].[OH3+]` gave a GI50 [1] of 6.72 µM, a TGI [1] of 49.8 µM and a GI50 [7] of 2.62 µM. The TGI [7] was 9.96 µM, the GI50 [8] was 2.06 µM and the TGI [8] was 7.28 µM. The GI50 [2] was 4.16 µM, the TGI [2] was 31.1 µM and the GI50 [3] was 3.3 µM. It also gave a TGI [3] of 22.1 µM, a GI50 [4] of 4.1 µM and a TGI [4] of 26.4 µM. For the same compound, the GI50 [5] was 2.07 µM, the TGI [5] was 13.5 µM and the GI50 [6] was 9.22 µM. For the same compound, the TGI [6] was > 100 µM.

`O=C(Nc1cccc([N+](=O)[O-])c1)C(=O)C(C(=O)c1ccccc1-c1ccccc1)C1OC(=O)c2ccccc21` (centres undefined) gave a TGI [1] of 98.8 µM, a TGI [7] of 33.9 µM and a TGI [8] of 26.2 µM. It also gave a TGI [2] of 75.8 µM, a TGI [9] of 99 µM and a TGI [3] of 71 µM. For the same compound, the TGI [4] was 73.6 µM, the TGI [5] was 66.5 µM and the TGI [6] was 27.7 µM.

In the case of `O=c1[nH]c(=O)n([C@@H]2C[C@H](CO)[C@H](O)C2)cc1/C=C/Br`, the TGI [1] was > 100 µM, the TGI [7] was > 100 µM and the TGI [8] was > 100 µM. For the same compound, the TGI [2] was > 100 µM, the TGI [9] was > 100 µM and the TGI [3] was > 100 µM. For the same compound, the TGI [4] was > 100 µM, the TGI [5] was > 100 µM and the TGI [6] was > 100 µM.
